The text below walks through data of publication PMC9917023, “Stabilization of Monomeric Tau Protein by All D-Enantiomeric Peptide Ligands as Therapeutic Strategy for Alzheimer’s Disease and Other Tauopathies” (International Journal of Molecular Sciences, 2023).

A short description of series [1]: Stability in human liver microsomes. It counts as in vitro ADME. As to conditions: 6 mg/mL protein, 1.3 mM NADPH with regenerating system, pH 7.4, after 24 h, read-out: still unmetabolized in human liver microsomes. As for the experimental part:
(§1) Figure 12 Stability assay of TF2D-5 and TF2D-5a using different simulated human body fluids. (A) Stability of compounds in simulated gastric fluid (SGF). The simulated gastric fluid consisted of 2 mg/mL sodium chloride, 3.2 mg/mL pepsin, and 80 mM HCl; pH 1. (B) Stability of TF2D-5 and TF2D-5a in simulated intestinal fluid (SIF). Simulated intestinal fluid consisted of 6.8 mg/mL potassium dihydrogen phosphate, 10 mg/mL pancreas powder, and 15.4 mM NaOH; pH 6.8. (C) Stability of TF2D-5 and TF2D-5a in human blood plasma. K3EDTA human blood plasma was purchased from BioTrend. (D) Stability of TF2D-5 and TF2D-5a in human liver microsomes. Human liver microsomes consisted of 6 mg/mL protein (containing Cytochrome P450 (CYP) enzymes), 75 mM sucrose, 1.3 mM NADPH, 3.3 mM D-glucose-6-phosphat, 0.2 u/mL D-glucose-6-phosphat dehydrogenase, 3.3 mM magnesium chloride, and 100 mM potassium phosphate; pH 7.4.
(§2) The stability of the compounds was tested according to Elfgen et al. and Schemmert et al. Exceptions included the extraction of plasma, simulated gastric fluid (SGF), and simulated intestinal fluid (SIF) samples. These were obtained by the addition of 12.5 µL 0.35 M ZnSO4, followed by vortexing, the addition of 12.5 µL 0.5 M HCl, additional vortexing, and centrifugation at 14,000× g for 10 min at 4 °C.
For orientation: Liver microsomes are a subcellular fraction often used to study metabolism.

Series [2] is described as follows: Stability in simulated gastric fluid. It counts as in vitro ADME. Conditions: SGF: 2 mg/mL NaCl, 3.2 mg/mL pepsin, 80 mM HCl, pH 1; 8 h. The protocol: as §1, §2
For another series, the system named is SH-SY5Y cells. Description: Cell-viability assay (MTT). It counts as cell-based, human. Conditions: 0.2, 1 and 5 µM, 24 h, 37 °C. The protocol:
Human […] SH-SY5Y cells and rat pheochromocytoma PC12 cells were cultivated in RPMI medium with 10% fetal bovine serum and 5% horse serum. On a collagen-coated 96-well plate (Gibco, Life Technology, Carlsbad, CA, USA), 10.000 cells were seeded per well. The plate was incubated for 24 h at 37 °C and 5% CO2. TF2D-5 and TF2D-5a were added to the cells at concentrations of 0.2 µM, 1 µM, and 5 µM, respectively. As a positive control, 0.1% Trion X-100 was used. A medium was used as a negative control. The samples were incubated for a further 24 h at 37 °C and 5% CO2. Cell viability was determined by using the Cell Proliferation Kit 1 (MTT) (Roche, Basel, Switzerland) according to the instruction manual. The absorbance of generated formazan products was measured using a CLARIOstar plate reader (BMG, Offenburg, Germany). Absorption at 570 nm was measured and referenced against absorbance at 660 nm.
Figure S3. Peptide toxicity assay for different concentrations of TF2D -5 and TF2D-5a.
For this assay the compounds TF2D -5 and TF2D-5a were incubated on SHSY5Y and PC12 cells for 24 h at 37 °C and 5 % CO2. The “Cell Proliferation Kit 1” from Roche was used for the MTT assay. RPMI with 10 % HS and 5 % FBS was used as cell medium. As […] 0.1 % Triton X100 was used. For both assays no negative effect on the cell viability could be observed by addition of both compounds. […]

Series [3] has as its system brain endothelial cells (RBMVEC) and astroglial cells (CTX TNA2).
Procedure: Each peptide was tested at different time points in triplicate next to an unseeded negative control (“Empty”) and quantitatively analyzed via HPLC using a calibration curve to determine the concentration of the peptide in the receiving chamber at each point in time (Figure 11). From these values, the volume of each chamber, and the respective time, a Papp permeability coefficient in cm²/s was calculated for each substance to represent its ability to cross the in vitro blood–brain barrier model.
An amount equaling 1 mg/mL TF2D-5 (A) or TF2D-5a (B) was added to an insert that was seeded and covered with endothelial and astroglial cells, representing the in vitro blood–brain barrier, or an empty insert serving as a control. After different time points, samples were taken and analyzed by quantitative HPLC analysis. Data given as mean ± SD out of three independent replicates.
Brain endothelial cells from rats and astroglial cells were used to cultivate the different sides of the porous membrane.
Brain endothelial cells from rats (RBMVEC, Cell Applications Inc., R840-05a, San Diego, CA, USA) were cultivated in Complete Classic medium (Cell Systems, Kirkland, WA, USA, 4Z0-500), and rat astroglial cells (CTX TNA2, ATCC, CRL-2006) were cultivated in Complete Classic medium (Cell Systems, Kirkland, WA, USA, 4Z0-500). The cells were allowed to grow in a humidified incubator with 5% CO2 at 37 °C and a maximum of 20 passages. The cells were passaged every 3 to 5 days, according to their confluence.
In order to set up the in vitro BBB model, the astroglial cells were seeded at a density of 600.000 cells/cm² on the outer (basolateral, “brain”) side of an insert with a porous membrane (Corning Transwell polycarbonate membrane cell culture inserts, CLS3415, 3 µM pore size) and allowed to grow/adhere overnight in the Complete Classic medium. The next day, brain endothelial cells were seeded at a density of 600.000 cells/cm² on the inner side (apical, “blood”) of the corresponding membrane. The seeded inserts were then cultivated to grow to full confluence over a period of 5 to 7 days, with the medium renewed daily. […] Prior to this, TEER (transendothelial electrical resistance values) were measured in each well to ensure the integrity of the in vitro BBB. At 0, 30, 60, 90, 120, 150, 180, and 240 min, 50 µL of the medium out of the outer chamber was taken and analyzed by HPLC. This 50 µL would then be replaced by the same amount of fresh serum-free medium to keep the fluid levels equal across both chambers. This slight dilution was factored into the following calculations. Furthermore, a dilution series of each reagent was analyzed alongside the samples as a calibration to quantify the analysis. […] The Papp values were calculated as follows (higher is better): Papp =(V/A∗C)∗(Dc/Dt)
Series [4] in a line: Stability in simulated intestinal fluid. It counts as in vitro ADME. As for the experimental part: as §1, §2

Non-standard residues stand in square brackets, D forms with d. Residues, ends and D or L forms follow the SMILES beside them.

Regarding `CC[C@@H](C)[C@@H](NC(=O)[C@@H](Cc1c[nH]cn1)NC(=O)CNC(=O)CNC(=O)[C@H]1CCCN1C(=O)[C@H](NC(=O)[C@@H](CCCCN)NC(=O)[C@@H](Cc1ccccc1)NC(=O)[C@@H](CC(C)C)NC(=O)[C@H](NC(=O)[C@@H](CCC(N)=O)NC(=O)[C@@H](Cc1ccc(O)cc1)NC(=O)CNC(=O)CNC(=O)[C@H](N)CC(=O)O)[C@H](C)CC)[C@H](C)CC)C(=O)N[C@H](Cc1c[nH]cn1)C(N)=O` [TF2D-5] (H-[dD]GG[dY][dQ][dI][dL][dF][dK][dI][dP]GG[dH][dI][dH]-NH2), the remaining at 24 h in series [1] came to 3.7%. The “stability in simulated gastric fluid” value in series [2] is reported as “very stable in simulated gastric fluid”. Besides, the “toxicity (cell viability, MTT)” value with SH-SY5Y cells is listed as “not toxic”. This compound also had a Papp permeability coefficient in series [3] of 3.6 ×10⁻⁶ cm/s. The “stability in simulated intestinal fluid” value in series [4] (SIF: 6.8 mg/mL KH2PO4, 10 mg/mL pancreas powder, 15.4 mM NaOH, pH 6.8) is recorded as “stable in simulated intestinal fluid”.

On to `CC[C@@H](C)[C@@H](NC(=O)[C@@H](Cc1c[nH]cn1)NC(=O)CNC(=O)CNC(=O)[C@H]1CCCN1C(=O)[C@H](NC(=O)[C@@H](CCCCN)NC(=O)[C@@H](Cc1ccccc1)NC(=O)[C@@H](CC(C)C)NC(=O)[C@H](NC(=O)[C@@H](CCC(N)=O)NC(=O)[C@@H](Cc1ccc(O)cc1)NC(=O)CNC(=O)CNC(=O)[C@H](N)CC(=O)O)[C@H](C)CC)[C@H](C)CC)C(=O)N[C@H](Cc1c[nH]cn1)C(=O)N[C@H](CCCNC(=N)N)C(=O)N[C@H](CCCNC(=N)N)C(=O)N[C@H](CCCNC(=N)N)C(=O)N[C@H](CCCNC(=N)N)C(=O)N[C@H](CCCNC(=N)N)C(N)=O` [TF2D-5a] (H-[dD]GG[dY][dQ][dI][dL][dF][dK][dI][dP]GG[dH][dI][dH][dR][dR][dR][dR][dR]-NH2), for which the remaining at 24 h in series [1] turned out to be 13.2%. The “stability in simulated gastric fluid” value in series [2] is given as “very stable in simulated gastric fluid”. The “toxicity (cell viability, MTT)” value with SH-SY5Y cells is on record as “not toxic”. In addition, the Papp permeability coefficient in series [3] was found to be 48 ×10⁻⁶ cm/s. Moreover, the metabolised at 8 h in series [4] (simulated intestinal fluid with pancreas powder, SIF pH 6.8, 10 mg/mL pancreas powder, after about 8 h, read-out: decrease of level in simulated intestinal fluid) is 27.8%.
